# Values of other authors in the CATMoS acute toxicity set (Mansouri et al. 2021).
# Several values for one entry are separate records, joined by “and”; a condition that tells them apart may be missing. Identical values can stand only once.
# Assay: rat acute oral toxicity
# Settings: in vivo
row,SMILES,LD50
1,CCOC(C1=NCC(C)(C)CN1)c1ccc(Cl)cc1 (configuration not stated),190 mg/kg
2,CCC(CC)C(=O)OCCOCCOCCOC(=O)C(CC)CC,6000 mg/kg
3,CCN(CC)CCOc1ccccc1-n1c(C)ccc1-c1ccccc1,700 mg/kg
4,CC(C)CC(O)CC(CC(C)C)CC(C)C (configuration not stated),16300 mg/kg
5,C/C=C/C=C/C(=O)O,7360 mg/kg and 4340 mg/kg and 7160 mg/kg
6,COP(=O)(OC)OC(=C(Br)Br)c1ccc(Cl)cc1Cl,180 mg/kg
7,CC=CC(=O)O,1000 mg/kg
8,CC(=O)N(OCCN(C)C)C12CC3CC(CC(C3)C1)C2,630 mg/kg
9,CC(C)N(N=O)C(C)C,850 mg/kg
10,C=CC#CC(C)(C)O,600 mg/kg
11,C=CCC1=C(C)C(OC(=O)C2C(C=C(C)C)C2(C)C)CC1=O (configuration not stated),685 mg/kg
12,CC(N)CC(C)(C)N (configuration not stated),431 mg/kg
13,c1ccc(C2(c3ccccc3)OCC(C3CCCCN3)O2)cc1 (configuration not stated),310 mg/kg and 280 mg/kg
14,COc1ccc(C=CC(=O)OCCC(C)C)cc1,9600 mg/kg
15,NC(=S)Nc1cccc(Cl)c1,25 mg/kg
16,CNC(=O)CSP(O)(=S)OC (configuration not stated),1500 mg/kg
17,CCN(CC)CCOC(=O)c1cccnc1,8400 mg/kg
18,CN(C)CCCN,1870 mg/kg
19,N#Cc1ccc(Cl)c([N+](=O)[O-])c1,2050 mg/kg
20,CC[N+]1(CC)CCC(OC(=O)C(O)(c2ccccc2)c2ccccc2)C1 (configuration not stated),760 mg/kg
21,O=S(=O)(O)c1ccc(N2CCC(c3ccc(Cl)cc3)=N2)cc1,5530 mg/kg
22,COc1cc(C[C@H]2c3cc(OC)c(OC)cc3CCN2C)c(Oc2cc3c(cc2OC)-c2c(OC)c(OC)cc4c2[C@H](C3)N(C)CC4)cc1OC,1500 mg/kg
23,C1CCCC1,11400 mg/kg
24,CCCCCCCCCCCCOS(=O)(=O)O,1300 mg/kg

row,SMILES,LD50
1,CCC(CC)(C(=O)O)c1cccc2ccccc12,1080 mg/kg
2,CC(COc1ccc(Cl)cc1Cl)C(=O)O (configuration not stated),800 mg/kg
3,CC(Br)C=CCl (configuration not stated),74 mg/kg
4,CCOP(=O)(OCC)SCn1nc(C)oc1=O,1 mg/kg
5,CC(O)C(c1ccc2c(c1)OCO2)N1CCOCC1 (configuration not stated),2470 mg/kg
6,NCCCCCCNCCCCCCN,450 mg/kg
7,Nc1ccc2cc(S(=O)(=O)O)c(/N=N/c3ccc(-c4ccc(/N=N/c5c(S(=O)(=O)O)cc6cc(S(=O)(=O)O)cc(N)c6c5O)cc4)cc3)c(O)c2c1,6450 mg/kg
8,CN(C)C=CC#N,946 mg/kg
9,CC1(C)CN(c2ccccc2)NC1=O,30 mg/kg
10,O=C1CCc2cc(C(=O)CCCN3CCN(c4ccccc4)CC3)ccc2N1,500 mg/kg
11,O=C(O)c1ccccc1Nc1cc(Cl)ccc1C(=O)O,1150 mg/kg
12,Cc1cc2[nH]c(C(F)(F)F)nc2cc1Br,77 mg/kg
13,NC(N)=[Se],50 mg/kg
14,CN1CCC(N(Cc2ccccc2)c2ccccc2)CC1,460 mg/kg
15,C[N+]1(CCC(C(N)=O)(c2ccccc2)c2ccccc2)CCCCCC1,2800 mg/kg
16,CCc1c2c(nc3ccc(OC(=O)N4CCC(N5CCCCC5)CC4)cc13)-c1cc3c(c(=O)n1C2)COC(=O)C3(O)CC (configuration not stated),867 mg/kg
17,Cc1c(C(=O)N(C)C)nnn1-c1ccccc1,500 mg/kg
18,Fc1cc2[nH]c(C(F)(F)F)nc2cc1Cl,8.66 mg/kg
19,CCCc1ccn[nH]1,616 mg/kg
20,NNC(=O)[C@@H](N)CS,1050 mg/kg
21,CCCc1c(OCc2cccn3c(=O)c(CCC(=O)O)cnc23)ccc(C(C)=O)c1O,4000 mg/kg
22,CC=CC(C)OC (configuration not stated),1210 mg/kg
23,CN(C)CCC#N,2600 mg/kg
24,COc1ccc(CNCC(O)COc2ccc3[nH]c(=O)ccc3c2)cc1OC (configuration not stated),1500 mg/kg

row,SMILES,LD50
1,CC(C(=O)O)c1ccc(CC2CCCC2=O)cc1 (configuration not stated),145 mg/kg
2,OCC=CCO,1250 mg/kg
3,C#CCN1C(=O)CN=C(c2ccccc2)c2cc(Cl)ccc21,5820 mg/kg
4,CC(=O)N1CCOCC1,6130 mg/kg
5,CC(=O)C(C)=Cc1ccccc1,4100 mg/kg
6,CC(C)CCOC(=O)c1ccccc1O,3300 mg/kg
7,CC(Cc1ccccc1)NCCN1CON=C1c1ccccc1 (configuration not stated),649 mg/kg
8,CC(C)/N=c1/cc2n(-c3ccc(Cl)cc3)c3ccccc3nc-2cc1Nc1ccc(Cl)cc1,8400 mg/kg
9,CCOP(=S)(OCC)OCCSCC,7.5 mg/kg
10,Nc1ccc(C(=O)O)cc1,8000 mg/kg
11,OC[C@@H](O)[C@@H](O)[C@H](O)[C@@H](O)CO,15900 mg/kg
12,CN(C)CCNC(=O)C(C)(C)Oc1ccc(Cl)cc1,130 mg/kg
13,Ic1ccc(Nc2nnc(CCN3c4ccccc4Sc4ccccc43)s2)cc1,3100 mg/kg
14,ClC(Cl)=C(c1ccc(Cl)cc1)c1ccc(Cl)cc1,880 mg/kg
15,Cc1ncc(COP(=O)(O)O)c(C=O)c1O,5900 mg/kg
16,CCN(CC)c1nc(NC(C)C)nc(OC)n1,885 mg/kg
17,CCOC(=O)C(Br)C#N (configuration not stated),420 mg/kg
18,Nc1c(/N=N/c2ccc([N+](=O)[O-])cc2)c(S(=O)(=O)O)cc2cc(S(=O)(=O)O)c(/N=N/c3ccc(-c4ccc(/N=N/c5ccc(O)cc5)cc4)cc3)c(O)c12,14700 mg/kg
19,COc1ccc2c(=O)c(C)c(-c3ccccc3)oc2c1CN(C)C,40 mg/kg and 14 mg/kg
20,CC(C)(O)C(C)(O)c1ccc(Cl)cc1 (configuration not stated),832 mg/kg
21,O=C1C(Cl)C2(Cl)C3C(Cl)OC(Cl)C3C1(Cl)C2(Cl)Cl (configuration not stated),7 mg/kg
22,C=C(C)C(=O)CC,419 mg/kg
23,COP(=O)(OC)C(O)(C(F)F)C(F)F,9 mg/kg
24,CCNC(=S)OC(C)C,568 mg/kg

row,SMILES,LD50
1,O=CC(Br)(Br)Br,100 mg/kg
2,CC(=O)OCCOCCOCCOC(C)=O,15600 mg/kg
3,CC(C)CCOC(=O)c1ccccc1,6330 mg/kg
4,CNC(C)C1CCC(N)C(OC2C(N)CC(N)C(OC3OCC(C)(O)C(NC)C3O)C2O)O1 (configuration not stated),6600 mg/kg
5,CCOC(=O)N1CCC=C(C=NOC)C1,200 mg/kg
6,Cc1ccc(C)[nH]1,59 mg/kg
7,CN1CCN(CCC(=O)NN=Cc2ccc([N+](=O)[O-])o2)CC1,300 mg/kg
8,CCOC(=O)c1cnn(C)c1-n1cnc2ccccc2c1=O,1760 mg/kg
9,CCC/C=C/C=O,780 mg/kg
10,CCCCOC(=O)CC#N,4180 mg/kg
11,CN1CCN(C2=Cc3ccccc3Sc3ccc(Cl)cc32)CC1,115 mg/kg
12,CCC=C(C)CO,4920 mg/kg
13,COP(=S)(OC)Oc1ccc(Cl)c([N+](=O)[O-])c1,500 mg/kg
14,C1CN1P1(N2CC2)=NP(N2CC2)(N2CC2)=NP(N2CC2)(N2CC2)=N1,98 mg/kg
15,C=CC(=O)OCCOCCOCCOC(=O)C=C,500 mg/kg
16,CCOP(=O)(OCC)OC(=C(Cl)Cl)c1cc(Cl)cc(Cl)c1,20 mg/kg
17,CCn1cc(C(=O)O)c(=O)c2cc(F)c(N3CCNC(C)C3)c(F)c21 (configuration not stated),3800 mg/kg and 1560 mg/kg
18,O=CCC=O,632 mg/kg
19,OCCOCCOCCOCCOc1ccccc1,1260 mg/kg
20,CNC(=O)Oc1ccc(O)c2ccccc12,1190 mg/kg
21,Nc1ccc(Br)cc1,456 mg/kg
22,CCOC(C(=O)O)(c1ccccc1)c1ccccc1,1000 mg/kg
23,CC(C)OC(=O)COc1cc(Cl)c(Cl)cc1Cl,495 mg/kg
24,O=[N+]([O-])c1cc([N+](=O)[O-])c(Nc2c(Br)cc(Br)cc2Br)c(C(F)(F)F)c1,4.43 mg/kg

row,SMILES,LD50
1,Cc1ccc(C(C)OC(=O)C2(C)CCC(C(=O)O)C2(C)C)cc1 (configuration not stated),2810 mg/kg
2,COP(=S)(OC)SC1CCSc2ccc(Cl)cc21 (configuration not stated),200 mg/kg
3,COc1cc(N)cn[n+]1-c1ccccc1,1330 mg/kg
4,CCC1OCCSC1=NOC(=O)NC (configuration not stated),19 mg/kg
5,COC(=O)CNC[P@](=O)(O)Oc1ccccc1,4100 mg/kg
6,COc1ccc(NC(=O)CC(C)=O)cc1,1700 mg/kg
7,C#CCCCC#C,2300 mg/kg
8,CC(C)COC(=O)COc1ccc(Cl)cc1Cl,300 mg/kg
9,CCC(C)C(C)(COC(N)=O)COC(N)=O (configuration not stated),1160 mg/kg
10,CC(Oc1ccc(Oc2ccc(Cl)cc2Cl)cc1)C(=O)O (configuration not stated),563 mg/kg
11,CC(Cc1ccccc1)NC(C#N)c1ccccc1 (configuration not stated),37.6 mg/kg
12,"C[N+]1(CCF)[C@@H]2CC[C@H]1C[C@@H](OC(=O)C(O)(c1ccccc1)c1ccccc1)C2 (single isomer, unassigned)",740 mg/kg
13,CCOC(=O)C1=C(C)NC(C)=C(C(=O)OCC)C1c1ccccc1/C=C/C(=O)OC(C)(C)C,880 mg/kg
14,C=CC(=O)OCCOCCOC(=O)C=C,250 mg/kg
15,ClCc1ccc(CCl)cc1,1280 mg/kg
16,Clc1cnn(CCCCN2CCN(c3ncccn3)CC2)c1,374 mg/kg
17,C=CCOP(OCC=C)OCC=C,178 mg/kg
18,Cc1c(-c2c(C)c(N)c3c(C(C)C)c(O)c(O)c(C=O)c3c2O)c(O)c2c(C=O)c(O)c(O)c(C(C)C)c2c1N,3270 mg/kg
19,CC1(C(=O)O)C2CCC(O2)C1C(=O)O (configuration not stated),50 mg/kg
20,CN1CCN(C[C@H]2C(=O)Nc3ccccc3S[C@H]2c2ccccc2)CC1,830 mg/kg
21,Cc1cccc(N2CCN(CC=Cc3ccc4c(c3)CCC(=O)N4)CC2)c1,500 mg/kg
22,[O-][n+]1cc[n+]([O-])c2ccccc21,500 mg/kg
23,C[C@@H]1C[C@H]2[C@@H]3CCC4=CC(=O)C=C[C@]4(C)[C@@]3(F)[C@@H](O)C[C@]2(C)[C@@]1(O)C(=O)COC(=O)c1ccncc1,3560 mg/kg
24,O=C1c2cccc(S(=O)(=O)O)c2C(=O)c2cccc(S(=O)(=O)O)c21,2360 mg/kg

row,SMILES,LD50
1,CN1CCC(=C2c3ccccc3C=Cc3ccccc32)CC1,295 mg/kg
2,C=CC(=O)OCC(CC)(COC(=O)C=C)COC(=O)C=C,5190 mg/kg
3,CC(C)(OOC(C)(C)c1ccccc1)c1ccccc1,4100 mg/kg
4,ClC1=C(Cl)C2(Cl)C3CC(Cl)(Cl)CC3C1(Cl)C2(Cl)Cl (configuration not stated),500 mg/kg
5,C=C[C@]1(C)C[C@@H](OC(=O)CSCCN(CC)CC)[C@]2(C)[C@H](C)CC[C@]3(CCC(=O)[C@H]32)[C@@H](C)[C@@H]1O,2230 mg/kg
6,CC[Si](OC(C)=O)(OC(C)=O)OC(C)=O,1460 mg/kg
7,O=S(=O)(O)OCCOc1cc(Cl)c(Cl)cc1Cl,720 mg/kg
8,COC(=O)Nc1nc2ccccc2n1C(=O)NCCCCCC#N,2500 mg/kg
9,N#CCCN1CC=C(c2cccc(C(F)(F)F)c2)CC1,515 mg/kg
10,FC(F)(F)c1nc2c(Cl)c(Cl)c(Cl)cc2[nH]1,1.52 mg/kg
11,CC(C)=CC1CC(C)CCO1 (configuration not stated),4300 mg/kg
12,O=C(O)c1cc(O)cc(C(=O)O)c1,11200 mg/kg
13,ClCCBr,64 mg/kg
14,COc1ccc(OC)cc1,3600 mg/kg
15,O=C1C(Cl)C2(Cl)C3C(Cl)OCC3C1(Cl)C2(Cl)Cl (configuration not stated),100 mg/kg
16,CCOCCOCC,4390 mg/kg
17,CCCCC(C)C(C)C(C)C(C)=O (configuration not stated),8470 mg/kg
18,Cc1onc(-c2c(Cl)cccc2Cl)c1C(=O)N[C@@H]1C(=O)N2[C@@H]1SC(C)(C)[C@@H]2C(=O)O,3580 mg/kg
19,CC(C)(C)c1cc(CCC(=O)O)ccc1O,1000 mg/kg
20,CC1Cc2cc3c(cc2C(c2ccc(N)cc2)=NN1)OCO3 (configuration not stated),350 mg/kg
21,CCOCCC(=O)O,4800 mg/kg
22,O=C1N(Cl)C2C(N1Cl)N(Cl)C(=O)N2Cl (configuration not stated),2150 mg/kg
